We go through four compounds from patent US10220112B2, “Cyclic antimicrobial pseudopeptides and uses thereof” (INSERM (INSTITUT NATIONAL DE LA SANTE ET DE LA RECHERCHE …, priority 2014, dated 2019).

In one data set the test system is E. coli strain ML-35p. Nature of the data set: E. coli outer and inner membrane permeabilization assays (nitrocefin / ONPG). The format is cell-based, Escherichia coli. The method, then:
E. coli outer and inner membrane permeability was determined by using E. coli strain ML-35p, which is lactose permease deficient. Nitrocefin, β-lactam is excluded by the outer cell membrane but, if it can pass this barrier thanks to the action of an AMP, it is then cleaved by the β-lactamase localized within the periplasm. ONPG, passes through lac permease and is cleaved by the cytoplasmic β-galactosidase, however with the ML-35p E. coli strain, ONPG is excluded unless permeabilization is achieved. The permeabilization assays were carried out with 100 μL of bacteria in MH broth at A600 nm 0.1-0.2 (10^7 cfu/mL, density necessary to detect degradation products). […] ONPG was added to a 100 μg/ml final concentration and substrate cleavage was monitored by light absorption measurements at 420 nm. Polymixin B at 8 μM against 10^7 cfu/mL was used as positive control. Bacterial suspension in MH broth plus substrates was used as negative control (untreated cells).

The test system of another data set is human erythrocytes. As to the kind of experiment: Lytic activity against human erythrocytes. Format: cell-based. The note with it: for Human cells % hemolysis at 500 μM / Human cells H50: Table 2; for Human cells H50: maximal concentration 500 μM. The method, then:
Human blood was collected from EFS (‘Etablissement Francais du Sang’) in Rennes (France). […] After centrifugation, the absorbance of the supernatant was measured at 414 nm. Three wells were positive controls, where the RBC were mixed with water 1% Triton X-100, in these wells the totality of RBC were hemolyzed and the release of hemoglobin was considered to be 100%. Three wells were negative controls, where the RBC were mixed with PBS buffer, in these wells hemolysis was considered to be null. The percentage of hemolysis in each test well was calculated by comparing with controls. For each peptide, bloods from three different donors were tested.

Data set [1] deals with VISA strain S. aureus Mu 50. As to the kind of experiment: microbe, parasite or virus in culture. The note with it: Staphylococcus aureus, read-out: VISA MIC.
In data set [2] the test system is MRSA strain S. aureus N315. Nature of the data set: microbe, parasite or virus in culture. Conditions: Staphylococcus aureus, read-out: MRSA MIC.
The test system of data set [3] is Staphylococcus aureus strain Newman. The method, then:
(§1) The antibacterial activity of the synthesized peptides was measured using a standard microdilution assay. Two bacterial species were tested, Staphylococcus aureus strain Newman and Escherichia coli strain K12 XL-Blue. Bacterial strains were subcultured in Mueller-Hinton broth. […] Bacteria were grown to an optical density (600 nm) of 0.5 and diluted 10^3 times in MH broth. Cell density in wells was 10^5 cfu/mL. 100 μL of this suspension was mixed with 100 μL of 2-fold serial dilutions of peptides in the well of a microtitre plate. Purified peptides were first dissolved in appropriate solvent to a final concentration of 2 mg/mL, in the microtitre plate, dilutions were made in MH broth from 1 to 0.004 mg/mL. […] Results obtained in massic concentrations were converted to molar concentrations for proper comparisons. Tests were performed in triplicate.
(§2) The results presented in Table 2 below were obtained in triplicate as described in the case of Table 1 except that the starting concentration was […] instead of 1 mg/mL.

Data set [4] deals with Escherichia coli strain K12 XL-Blue. How it is done: as §1, §2
Data set [5] can be described thus: Peptides stability in human sera (RP-HPLC). The method, then: Peptides stability in human sera. […] The initial time was recorded, and at known time intervals, 100 μL of reaction solution was removed and quenched by adding 200 μL of 95% EtOH and adjusted at pH=2 to eliminate the effect of peptides adsorption to the protein of the human serum. The cloudy reaction sample was cooled (4° C.) for 15 minutes and then spun at 14 000 rpm (Eppendorf centrifuge) for 4 minutes to pellet the precipitated serum proteins.
The different peptides were incubated with human serum up to 10 hours, and their stability was analyzed and their half-lives determined by RP-HPLC (FIG. 1).

In brackets after ≈: the same amount, converted by molar mass. Residues, ends and D or L forms follow the SMILES beside them.

As for polymixin B, the “time to detection of the reporter, inner membrane” value in the data set with E. coli strain ML-35p (ONPG, polymixin B 8 μM, peptides 6 μM and 12 μM) amounted to 20 min. In the data set with E. coli strain ML-35p (nitrocefin, polymixin B at 8 μM), the “time to detection of the reporter, outer membrane” value came out at 30 s.

With `COc1cccc(OC)c1C(=O)N[C@@H]1C(=O)N2[C@@H]1SC(C)(C)[C@@H]2C(=O)O` [Meticillin, reference compound], in the data set on human erythrocytes, the “Human cells % hemolysis at 500 μM” value was 0.12% and the “Human cells H50” value is “nd (not detectable at the maximal concentration tested (500 μM))”. Besides, the MIC in data set [1] is > 500 µM.

As to `CN[C@H](CC(C)C)C(=O)N[C@H]1C(=O)N[C@@H](CC(N)=O)C(=O)N[C@H]2C(=O)N[C@H]3C(=O)N[C@H](C(=O)N[C@H](C(=O)O)c4cc(O)cc(O)c4-c4cc3ccc4O)[C@H](O)c3ccc(c(Cl)c3)Oc3cc2cc(c3O[C@@H]2O[C@H](CO)[C@@H](O)[C@H](O)[C@H]2O[C@H]2C[C@](C)(N)[C@H](O)[C@H](C)O2)Oc2ccc(cc2Cl)[C@H]1O` [Vancomycin, reference compound], in the data set on human erythrocytes, the “Human cells % hemolysis at 500 μM” value worked out at 0.15% and the “Human cells H50” value is listed as “nd (not detectable at the maximal concentration tested (500 μM))”. Further, the MIC in data set [1] was 1 µM (≈ 1.45 µg/mL). Moreover, the MIC in data set [2] came out at 32 µM (≈ 46.4 µg/mL).

Turning to `CC(C)C[C@@H]1NC(=O)[C@H](Cc2c[nH]c3ccccc23)NC(=O)[C@H](Cc2ccccc2)NC(=O)[C@H](Cc2ccccc2)NC(=O)[C@H](CCCCN)NC(=O)[C@H]([C@@H](C)O)NC(=O)[C@H](CCCNC(=N)N)NC(=O)[C@H](CCCNC(=N)N)NC(=O)[C@H](CO)NC1=O` [Pep6] (cyclo(FFWLSRRTK)), the “lysis of human erythrocytes (in words)” value with human erythrocytes is listed as “substantial hemolysis”. The “Human cells H50 (peptide concentration at which half of the human erythrocytes are lysed)” value with human erythrocytes (Table 1, 2 h 37°C, maximal concentration 1 mg/mL) was 5 µM. Moreover, in data set [3], the “MIC, fold reduced compared to Pep5, S. aureus” value is “ten-fold”. The “fold higher activity than linear Pep4” value in data set [3] (species not specified) amounted to 4 fold. In addition, the “MIC, fold reduced compared to Pep5, E. coli” value in data set [4] was “ten-fold”. The “stabilizing effect in human serum compared with linear Pep4” value in data set [5] is ~320 fold.
